Among the data in patent US8318467B2, “Inhibitors of GSK-3 and crystal structures of GSK-3β protein and protein complexes” (Vertex Pharmaceuticals Incorporated, priority 2001, dated 2012) are Ki values, retold here.

The test concerns the target T1, GSK-3β (amino acids 1-420) (Homo sapiens, UniProt P49841).
T1 construct: hexa-histidine tag with thrombin cleavage site (N); made in house
Description: Ki determination for the inhibition of GSK-3 (standard coupled enzyme system). Conditions: 20 μM ATP, 300 μM peptide, 20 nM GSK-3β, 30° C.; read-out: Ki (GSK-3 inhibitory activity). It is filed as biochemical. Here is the method: Reactions were carried out in a solution containing 100 mM HEPES (pH 7.5), 10 mM MgCl2, 25 mM NaCl, 300 μM NADH, 1 mM DTT and 1.5% DMSO. […] Reactions were carried out at 30° C. and 20 nM GSK-3β. Final concentrations of the components of the coupled enzyme system were 2.5 mM phosphoenolpyruvate, 300 μM NADH, 30 μg/ml pyruvate kinase and 10 μg/ml lactate dehydrogenase.
An assay stock buffer solution was prepared containing all of the reagents listed above with the exception of ATP and the test compound of interest. The assay stock buffer solution (175 μl) was incubated in a 96 well plate with 5 μl of the test compound of interest at final concentrations spanning 0.002 μM to 30 μM at 30° C. for 10 min. […] The reaction was initiated by the addition of 20 μl of ATP (final concentration 20 μM). Reaction rates were obtained using a Molecular Devices Spectramax plate reader (Sunnyvale, Calif.) over 10 min at 30° C. The Ki values were determined from the rate data as a function of inhibitor concentration.

Broadly, the Ki is the equilibrium dissociation constant of an inhibitor or competing ligand from its target.

T1 sequence (P49841 whole entry, the tested form may be a part): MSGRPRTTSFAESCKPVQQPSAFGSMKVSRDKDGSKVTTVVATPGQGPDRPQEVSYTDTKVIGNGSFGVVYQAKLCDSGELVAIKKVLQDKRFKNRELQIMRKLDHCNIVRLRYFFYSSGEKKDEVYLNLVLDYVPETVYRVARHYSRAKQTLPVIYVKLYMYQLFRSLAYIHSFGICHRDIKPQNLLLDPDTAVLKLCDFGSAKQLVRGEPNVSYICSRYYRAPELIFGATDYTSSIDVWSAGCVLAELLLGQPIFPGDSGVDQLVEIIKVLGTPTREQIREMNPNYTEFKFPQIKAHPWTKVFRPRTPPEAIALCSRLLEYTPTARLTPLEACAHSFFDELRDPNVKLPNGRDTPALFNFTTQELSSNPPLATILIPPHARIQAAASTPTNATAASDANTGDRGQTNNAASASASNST

As for `Nc1n[nH]c2nnc(-c3ccc(Cl)cc3)c(-c3ccccc3)c12` [Compound 16, 3-Amino-4-phenyl-5-(4-chloro-phenyl)-1H-pyrazolo[3,4-c]pyridazine], the Ki lay within 100 to 10000 nM.
For `O=C(Nc1n[nH]c2nnc(-c3ccccc3)c(-c3ccccc3)c12)c1ccccc1` [Compound 10, N-(4,5-Diphenyl-1H-pyrazolo[3,4-c]pyridazin-3-yl)-benzamide], the Ki was in the range of 100 to 10000 nM.
On to `Nc1n[nH]c2nnc(-c3ccc(F)cc3)c(-c3ccccc3)c12` [Compound 4, 3-Amino-4-phenyl-5-(4-fluorophenyl)-1H-pyrazolo[3,4-c]pyridazine], for which the Ki is above 10000 nM.
Regarding `Nc1n[nH]c2nnc(-c3ccccc3Cl)c(-c3ccccc3)c12` [Compound 14, 3-Amino-4-phenyl-5-(2-chloro-phenyl)-1H-pyrazolo[3,4-c]pyridazine], the Ki is below 100 nM.
As to `Cc1ccccc1-c1nnc2[nH]nc(N)c2c1-c1ccccc1` [Compound 12, 3-Amino-4-phenyl-5-(2-methyl-phenyl)-1H-pyrazolo[3,4-c]pyridazine], the Ki was in the range of 100 to 10000 nM.
The value for `Nc1n[nH]c2nnc(-c3ccc(F)cc3)c(-c3ccc(F)cc3)c12` [Compound 3, 3-Amino-4,5-bis(4-fluorophenyl)-1H-pyrazolo[3,4-c]pyridazine] was 100 to 10000 nM; that for `Nc1n[nH]c2nnc(-c3ccncc3)c(-c3ccccc3)c12` [Compound 7, 3-Amino-4-phenyl-5-(4-pyridyl)-1H-pyrazolo[3,4-c]pyridazine] was above 10000 nM.
As for `Cc1cccc(-c2nnc3[nH]nc(N)c3c2-c2ccccc2)c1` [Compound 13, 3-Amino-4-phenyl-5-(3-methyl-phenyl)-1H-pyrazolo[3,4-c]pyridazine], the Ki was in the range of 100 to 10000 nM.
The value for `Nc1n[nH]c2nncc(-c3ccccc3)c12` [Compound 32, 4-Phenyl-1H-pyrazolo[3,4-c]pyridazin-3-ylamine] was 100 to 10000 nM; that for `Nc1n[nH]c2nnc(-c3ccccc3)c(-c3ccc(Cl)cc3)c12` [Compound 2, 3-Amino-4(4-chlorophenyl)-5-phenyl-1H-pyrazolo[3,4-c]pyridazine] was above 10000 nM.
With `Nc1n[nH]c2nnc(-c3ccccc3)c(-c3ccc(F)cc3)c12` [Compound 5, 3-Amino-4-(1-fluorophenyl)-5-phenyl-1H-pyrazolo[3,4-c]pyridazine] the figure was below 100 nM; with `Cc1ccc(-c2nnc3[nH]nc(N)c3c2-c2ccccc2)cc1` [Compound 11, 3-Amino-4-phenyl-5-(4-methyl-phenyl)-1H-pyrazolo[3,4-c]pyridazine], below 100 nM.
On to `Nc1n[nH]c2nnc(-c3ccccc3)c(-c3cccc(F)c3)c12` [Compound 6, 3-Amino-4(3-fluorophenyl)-5-phenyl-1H-pyrazolo[3,4-c]pyridazine], for which the Ki is below 100 nM.
As to `Nc1n[nH]c2nnc(-c3ccccc3F)c(-c3ccccc3)c12` [Compound 15, 3-Amino-4-phenyl-5-(2-fluorophenyl)-1H-pyrazolo[3,4-c]pyridazine], the Ki is below 100 nM.
Take `Nc1n[nH]c2nnc(-c3cccc(F)c3)c(-c3ccccc3)c12` [Compound 8, 3-Amino-4-phenyl-5-(3-fluorophenyl)-1H-pyrazolo[3,4-c]pyridazine]: the inhibitory constant (Ki) is below 100 nM.
On to `CC(=O)Nc1n[nH]c2nnc(-c3ccccc3)c(-c3ccccc3)c12` [Compound 9, N-(4,5-Diphenyl-1H-pyrazolo[3,4-c]pyridazin-3-yl)-acetamide], for which the Ki fell in the range of 100 to 10000 nM.
